Measured values reported in patent publication US11219621B2, “Methods for treating immunodeficiency disease” (X4 Pharmaceuticals, Inc., priority 2015, dated 2022).

Key:
[1] = target: T1, BLT1 (Homo sapiens, UniProt Q15722); conditions: cited from earlier work
T1 construct: expressed in transfected cells

[2] = test system: white blood cells (WBC), neutrophils, lymphocytes; assay: Hematologic effects of a single oral dose in the male Beagle dog; format: in vivo
Description: Three fasted male Beagle dogs received a single dose of […]-001 in aqueous solution by oral gavage at dose levels of 5, 15, and 35 mg/kg (1 dog per dose level) in a volume of 1 mL/kg. Blood samples (approximately 3 mL each) were obtained at multiple timepoints from each animal by direct venipuncture of the jugular vein and collected using Vacutainer® tubes containing K3EDTA as the anticoagulant. […] Blood samples were stored at ambient room temperature prior to automated differential analysis Body weights were determined prior to dosing on the day of test article administration. […] Hematology parameters included the following: White Blood Cell Count (WBC) Differential white blood cell count (absolute and relative) • Neutrophil • Lymphocytes • Monocytes • Eosinophils • Basophils • Large Unstained Cells (LUC) • Hematocrit (HCT) • Hemoglobin (HGB) • Mean Corpuscular Hemoglobin (MCH) • Mean Corpuscular Hemoglobin Concentration (MCHC) • Mean Corpuscular Volume (MCV) • Platelet Count (PLT) • Red Blood Cell Count (RBC) Results

[3] = target: T2, CCR2b (Homo sapiens, UniProt P41597); conditions: cited from earlier work
T2 construct: expressed in transfected cells
T2 sequence (P41597 1-360 isoform P41597-2): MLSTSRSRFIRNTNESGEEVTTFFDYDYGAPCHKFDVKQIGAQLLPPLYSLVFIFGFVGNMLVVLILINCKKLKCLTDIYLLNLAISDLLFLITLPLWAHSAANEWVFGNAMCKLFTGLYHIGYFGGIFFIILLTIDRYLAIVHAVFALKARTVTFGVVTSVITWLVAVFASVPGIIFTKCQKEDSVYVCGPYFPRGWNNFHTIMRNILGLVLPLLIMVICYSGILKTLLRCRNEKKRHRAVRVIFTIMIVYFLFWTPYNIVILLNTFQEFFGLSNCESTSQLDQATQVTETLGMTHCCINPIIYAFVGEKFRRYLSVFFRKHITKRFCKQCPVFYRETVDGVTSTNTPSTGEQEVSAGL

[4] = test system: granulocyte-macrophage (CFU-GM), erythroid (BFU-E) and multipotential (CFU-GEMM) progenitor cells; assay: Progenitor/stem cell mobilization in mice after single subcutaneous injection; format: in vivo, C3H/HeJ mice
[5] = 28-Day GLP oral (capsule) toxicity study in the Beagle dog with 14-day recovery; format: in vivo
Description: A 28-Day GLP oral (capsule) toxicology study was conducted with […]-001 in the male and female beagle dog, and hematology effects were observed, with […]-001 administered twice-daily (at least 7 hours apart) by oral capsule for 28 days. A subset of treated animals was evaluated after a 14-day recovery period. [table] [table]

[6] = human, in vivo
[7] = target: T3, CCR7 (Homo sapiens, UniProt P32248); conditions: cited from earlier work
T3 construct: endogenous in cells
T3 sequence (P32248 25-378): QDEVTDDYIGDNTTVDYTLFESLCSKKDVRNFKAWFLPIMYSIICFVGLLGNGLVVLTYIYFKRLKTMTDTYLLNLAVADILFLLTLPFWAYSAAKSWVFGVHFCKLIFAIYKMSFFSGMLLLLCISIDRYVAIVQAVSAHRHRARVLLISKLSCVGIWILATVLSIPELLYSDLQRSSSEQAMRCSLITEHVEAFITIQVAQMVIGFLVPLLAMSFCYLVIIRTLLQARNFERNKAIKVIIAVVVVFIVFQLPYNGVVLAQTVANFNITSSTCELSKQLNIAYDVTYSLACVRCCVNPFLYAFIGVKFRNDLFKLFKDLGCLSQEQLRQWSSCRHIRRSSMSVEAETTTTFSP

[8] = Clinical studies, oral administration to healthy volunteers and HIV patients
[9] = target: CXCR4 (Homo sapiens, UniProt P61073); conditions: SDF-1α dose/response in calcium flux assay with increasing amounts of X4P-001; cited from earlier work
[10] = single oral dose 5, 15, 35 mg/kg
[11] = F, 10 mg/kg/d, termination, †p < 0.05
[12] = F, 30 mg/kg/d, termination, †p < 0.05
[13] = F, 100 mg/kg/d, termination, †p < 0.05
[14] = M, 100 mg/kg/d, termination, †p < 0.05

T1 sequence (Q15722 whole entry): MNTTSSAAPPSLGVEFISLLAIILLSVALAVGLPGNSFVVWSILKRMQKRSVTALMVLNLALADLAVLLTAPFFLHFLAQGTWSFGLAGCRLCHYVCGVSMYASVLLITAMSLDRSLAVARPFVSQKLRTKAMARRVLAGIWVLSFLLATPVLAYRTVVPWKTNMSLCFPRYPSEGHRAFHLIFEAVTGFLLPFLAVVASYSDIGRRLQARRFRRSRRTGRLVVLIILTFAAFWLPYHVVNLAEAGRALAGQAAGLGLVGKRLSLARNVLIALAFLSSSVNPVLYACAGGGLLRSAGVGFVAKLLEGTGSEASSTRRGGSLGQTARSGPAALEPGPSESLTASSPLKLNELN
Sequence of CXCR4 (P61073 whole entry): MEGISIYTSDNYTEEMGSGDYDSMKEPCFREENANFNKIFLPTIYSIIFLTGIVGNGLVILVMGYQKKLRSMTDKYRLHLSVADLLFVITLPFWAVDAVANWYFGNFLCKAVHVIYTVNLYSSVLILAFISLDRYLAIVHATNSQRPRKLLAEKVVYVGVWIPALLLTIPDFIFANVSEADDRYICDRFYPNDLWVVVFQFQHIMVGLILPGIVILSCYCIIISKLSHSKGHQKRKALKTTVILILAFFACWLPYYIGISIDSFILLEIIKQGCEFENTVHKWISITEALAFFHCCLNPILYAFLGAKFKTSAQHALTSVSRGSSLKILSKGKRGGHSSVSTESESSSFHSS

SMILES: NCCCCN(Cc1nc2ccccc2[nH]1)[C@H]1CCCc2cccnc21 [X4P-001]
- IC50 ([1]; BLT1, CHO-S-LTB4, LTB4, ligand binding, read-out: IC50 AMD11070): > 50 µM
- Inhibitory effect on LTB4 binding to BLT1 [1]: little or no inhibitory effect
- Peak elevations of WBC above baseline ([2]; 5 mg/kg dose level): 1.5 fold
- Total circulating WBC, neutrophils, and lymphocytes, increase ([2]; 5 mg/kg, all three cell counts): 1.47 × baseline
- Lymphocytes, increase ([2]; 15 mg/kg): 2.9 ×
- Neutrophils, increase ([2]; 15 mg/kg): 1.8 ×
- Lymphocytes, increase ([2]; 35 mg/kg): 1.9 ×
- Neutrophils, increase ([2]; 35 mg/kg): 2.7 ×
- Time at which increases were consistently apparent ([2]; 5, 15, and 35 mg/kg): 4 h
- Time of peak of increases ([2]; 5, 15, and 35 mg/kg, typically, occasionally earlier): ~12 h
- Peak elevations of WBC above baseline ([2]; 15 and 35 mg/kg dose levels): 1.8-2.9 fold
- WBC, neutrophil, and lymphocyte counts at 24 hours ([2]; 15 and 35 mg/kg, with evidence of return to baseline): remained elevated
- Other hematological effects [2, 10]: No other hematological effects
- Time of maximal increases in WBC [2, 10]: 4-12 hours post-dose
- IC50 ([3]; CCR2b, HEK293F-CCR2b, MCP-1/CCL2, read-out: IC50 AMD11070): > 50 µM
- Inhibitory effect on MCP-1 mediated calcium flux (CCR2b) [3]: little or no inhibitory effect
- GEMM (CFU-GEMM), Mean ([4]; Table 7, progenitor cells per mL of blood, 1 hour post-injection, 1.5 mg/kg s.c.): 53.3
- BFU (BFU-E), Mean ([4]; Table 7, progenitor cells per mL of blood, 1 hour post-injection, 10 mg/kg s.c.): 268.1
- Nucleated Cellularity PBL-LD, Mean ([4]; Table 7 dose response, 1 hour post-injection, 20 mg/kg s.c.): 9.62e+06 mL⁻¹
- BFU (BFU-E), Mean ([4]; Table 8, progenitor cells per mL of blood, 5 mg/kg s.c., @ - 30″ (0.5 h)): 151.9
- BFU (BFU-E), Mean ([4]; Table 8, progenitor cells per mL of blood, 5 mg/kg s.c., @ - 60″ (1 h)): 144.3
- Coagulation ([5]; 10 mg/kg/d, termination): No changes
- reticulocytes ([5]; 10 mg/kg/d, termination): No changes
- Coagulation ([5]; 30 mg/kg/d, termination): No changes
- reticulocytes ([5]; 30 mg/kg/d, termination): No changes
- Coagulation ([5]; 100 mg/kg/d, termination): No changes
- lymphocytes (abs), incr ([5]; F, 10 mg/kg/d, termination): F incr 1.4x
- monocytes (abs), incr [5, 11]: F incr 1.6x†
- neutrophils (abs), incr [5, 11]: F incr 1.9x†
- lymphocytes (abs), incr [5, 12]: F incr 1.6x†
- monocytes (abs), incr [5, 12]: F incr 1.9x†
- neutrophils (abs), incr [5, 12]: F incr 2.3x†
- lymphocytes (abs), incr [5, 13]: F incr 1.4x†
- monocytes (abs), incr [5, 13]: F incr 2.4x†
- neutrophils (abs), incr [5, 13]: F incr 2.8x†
- reticulocytes, decr [5, 13]: F decr 0.24x†
- lymphocytes (abs), incr ([5]; M, 10 mg/kg/d, termination): M incr 1.3x;
- monocytes (abs), incr ([5]; M, 10 mg/kg/d, termination): M incr 1.2x;
- neutrophils (abs), incr ([5]; M, 10 mg/kg/d, termination): M incr 1.2x;
- lymphocytes (abs), incr ([5]; M, 30 mg/kg/d, termination): M incr 1.6x;
- monocytes (abs), incr ([5]; M, 30 mg/kg/d, termination): M incr 1.3x;
- neutrophils (abs), incr ([5]; M, 30 mg/kg/d, termination): M incr 1.2x;
- neutrophils (abs), incr ([5]; M, 100 mg/kg/d, termination): M incr 1.8x;
- lymphocytes (abs), incr [5, 14]: M incr 2.3x†;
- monocytes (abs), incr [5, 14]: M incr 1.9x†;
- All hematology results after the 14-day recovery period ([5]; only 100 mg/kg dose group evaluated): returned to within normal levels
- Volume of distribution (VL) [6]: high
- IC50 ([7]; CCR7, CCRF-CEM, MIP-3β/CCL19, read-out: IC50 AMD11070): > 50 µM
- Inhibitory effect on MIP-3β mediated calcium flux (CCR7) [7]: little or no inhibitory effect
- Pharmacodynamic activity, circulating white blood cells (WBCs) ([8]; healthy volunteers and HIV patients): dose- and concentration-related changes
- Increases in WBC counts ([8]; human subjects, dose-dependent, FIG. 9): 2-3 ×
- Mode of inhibition of CXCR4 [9]: allosteric inhibitor
